Measured values reported in US10294217B2, “Fluoroindole derivatives as muscarinic M1 receptor positive allosteric modulators” (Suven Life Sciences Limited, priority 2015, dated 2019).
Counter-ions that a name gives are not always drawn.

target: human Muscarinic M1 receptor (Homo sapiens (Human), UniProt P11229); assay: Allosteric potency EC50 for muscarinic M1 receptor (CHO cells, pCRE-Luc reporter); assay type: cell-based; conditions: hM1 PAM EC50, in presence of EC20 of acetylcholine; luciferase activity, 4 hours
Protocol: Determination of Allosteric Potency EC50 Values for Muscarinic M1 Receptor:
A stable CHO cell line expressing recombinant human Muscarinic M1 receptor and pCRE-Luc reporter system was used for cell-based assay. The assay offers a non-radioactive based approach to determine binding of a compound to GPCRs. In this specific assay, the level of intracellular cyclic AMP which is modulated by activation or inhibition of the receptor is measured. The recombinant cells harbor luciferase reporter gene under the control of cAMP response element.
The above cells were grown in 96 well clear bottom white plates in Hams F12 medium containing 10% fetal bovine serum (FBS). Prior to the addition of compounds or standard agonist, cells were serum starved overnight. Increasing concentrations of test compounds were added along with EC20 of acetylcholine in OptiMEM medium to the cells. The incubation was continued at 37° C. in CO2 incubator for 4 hours. Medium was removed and cells were washed with phosphate buffered saline. The cells were lysed and luciferase activity was measured in a Luminometer. Luminescence units were plotted against the compound concentrations using Graphpad software. EC50 values of the compounds were defined as the concentration required in stimulating the luciferase activity by 50% in presence of EC20 of acetylcholine and the results are provided in table 1.

**Q.** For `O=C(N[C@@H]1CCNC[C@H]1F)c1cn(Cc2ccnc(F)c2)c2c(F)ccc(F)c12` (single isomer, unassigned; isomer-i) [Example 24, trans-N-(3-Fluoropiperidin-4-yl)-1-(2-fluoropyridin-4-ylmethyl)-4,7-difluoro-1H-indole-3-carboxamide hydrochloride (Isomer-I)], which EC50 is on record?
**A.** 1390 nM

**Q.** Which EC50 does the source give for `O=C(N[C@H]1CCNC[C@H]1F)c1cn(Cc2ccc(Cl)cc2)c2cccc(F)c12` (single isomer, unassigned; isomer-i) [Example 34, cis-N-(3-Fluoropiperidin-4-yl)-1-(4-chlorobenzyl)-4-fluoro-1H-indole-3-carboxamide hydrochloride (Isomer-I)] here?
**A.** 1390 nM

**Q.** For `O=C(N[C@H]1CCNC[C@H]1F)c1cn(Cc2ccc(F)cc2)c2c(F)ccc(F)c12` (single isomer, unassigned; isomer-i) [Example 31, cis-N-(3-Fluoropiperidin-4-yl)-1-(4-fluorobenzyl)-4,7-difluoro-1H-indole-3-carboxamide hydrochloride (Isomer-I)], which EC50 is on record?
**A.** 1610 nM

**Q.** With `O=C(N[C@@H]1CCNC[C@H]1F)c1cn(Cc2ccnc(F)c2)c2c(F)ccc(F)c12` (single isomer, unassigned; isomer-ii) [Example 25, trans-N-(3-Fluoropiperidin-4-yl)-1-(2-fluoropyridin-4-ylmethyl)-4,7-difluoro-1H-indole-3-carboxamide hydrochloride (Isomer-II)] as the molecule, how does the EC50 read?
**A.** 1440 nM

**Q.** Which EC50 does the source give for `O=C(N[C@H]1CCNC[C@H]1F)c1cn(Cc2ccnc(F)c2)c2cccc(F)c12` (single isomer, unassigned; isomer-i) [Example 44, cis-N-(3-Fluoropiperidin-4-yl)-1-(2-fluoropyridin-4-ylmethyl)-4-fluoro-1H-indole-3-carboxamide hydrochloride (Isomer-I)] here?
**A.** 1310 nM

**Q.** For `O=C(N[C@H]1CCNC[C@H]1F)c1cn(Cc2ccc3ncsc3c2)c2cccc(F)c12` (single isomer, unassigned; isomer-i) [Example 45, cis-N-(3-Fluoropiperidin-4-yl)-1-(benzothiazol-6-ylmethyl)-4-fluoro-1H-indole-3-carboxamide hydrochloride (Isomer-I)], which EC50 is on record?
**A.** 1160 nM

**Q.** Which EC50 does the source give for `COc1cccc(Cn2cc(C(=O)N[C@H]3CCNC[C@H]3F)c3c(F)cccc32)c1` (single isomer, unassigned; isomer-ii) [Example 36, cis-N-(3-Fluoropiperidin-4-yl)-4-fluoro-1-(3-methoxybenzyl)-1H-indole-3-carboxamide hydrochloride (Isomer-II)] here?
**A.** 1350 nM

**Q.** Which EC50 does the source give for `COc1ccc(Cn2cc(C(=O)N[C@H]3CCNC[C@H]3F)c3c(F)ccc(F)c32)cc1` (single isomer, unassigned; isomer-i) [Example 39, cis-N-(3-Fluoropiperidin-4-yl)-1-(4-methoxybenzyl)-4,7-difluoro-1H-indole-3-carboxamide hydrochloride (Isomer-I)] here?
**A.** 1480 nM

**Q.** For `O=C(NC1CCNCC1F)c1cn(Cc2ccnc(F)c2)c2c(F)ccc(F)c12` (single isomer, unassigned; isomer-ii) [Example 23, cis-N-(3-Fluoropiperidin-4-yl-1-(2-fluoropyridin-4-ylmethyl)-4,7-difluoro-1H-indole-3-carboxamide hydrochloride (Isomer-II)], which EC50 is on record?
**A.** 1070 nM

**Q.** With `O=C(N[C@H]1CCNC[C@H]1F)c1cn(Cc2ccncc2F)c2c(F)ccc(F)c12` (single isomer, unassigned; isomer-i) [Example 26, cis-N-(3-Fluoropiperidin-4-yl)-1-(5-fluoropyridin-4-ylmethyl)-4,7-difluoro-1H-indole-3-carboxamide hydrochloride (Isomer-I)] as the molecule, how does the EC50 read?
**A.** 1100 nM

**Q.** Which EC50 does the source give for `O=C(N[C@H]1CCNC[C@H]1F)c1cn(Cc2ccc(F)cc2)c2cccc(F)c12` (single isomer, unassigned; isomer-i) [Example 30, cis-N-(3-Fluoropiperidin-4-yl)-1-(4-fluorobenzyl)-4-fluoro-1H-indole-3-carboxamide hydrochloride (Isomer-I)] here?
**A.** 1080 nM

**Q.** For `O=C(N[C@H]1CCNC[C@H]1F)c1cn(Cc2ccnc(Cl)c2)c2c(F)ccc(F)c12` (single isomer, unassigned; isomer-i) [Example 29, cis-N-(3-Fluoropiperidin-4-yl)-1-(2-chloropyridin-4-ylmethyl)-4,7-difluoro-1H-indole-3-carboxamide hydrochloride (Isomer-I)], which EC50 is on record?
**A.** 2920 nM

**Q.** With `O=C(N[C@H]1CCNC[C@H]1F)c1cn(Cc2ccccc2F)c2cccc(F)c12` (single isomer, unassigned; isomer-i) [Example 33, cis-N-(3-Fluoropiperidin-4-yl)-1-(2-fluorobenzyl)-4-fluoro-1H-indole-3-carboxamide hydrochloride (Isomer-I)] as the molecule, how does the EC50 read?
**A.** 1370 nM

**Q.** With `O=C(N[C@H]1CCNC[C@H]1F)c1cn(Cc2ccnc(Cl)c2)c2cccc(F)c12` (single isomer, unassigned; isomer-i) [Example 27, cis-N-(3-Fluoropiperidin-4-yl)-1-(2-chloropyridin-4-ylmethyl)-4-fluoro-1H-indole-3-carboxamide hydrochloride (Isomer-I)] as the molecule, how does the EC50 read?
**A.** 1690 nM

**Q.** Which EC50 does the source give for `O=C(N[C@H]1CCNC[C@H]1F)c1cn(Cc2ccnc(Cl)c2)c2c(F)ccc(F)c12` (racemic) [Example 28, cis-N-(3-Fluoropiperidin-4-yl)-1-(2-chloropyridin-4-ylmethyl)-4,7-difluoro-1H-indole-3-carboxamide hydrochloride (Racemate)] here?
**A.** 1570 nM

**Q.** For `O=C(N[C@H]1CCNC[C@H]1F)c1cn(Cc2ccc(F)cc2)c2c(F)ccc(F)c12` (single isomer, unassigned; isomer-ii) [Example 32, cis-N-(3-Fluoropiperidin-4-yl)-1-(4-fluorobenzyl)-4,7-difluoro-1H-indole-3-carboxamide hydrochloride (Isomer-II)], which EC50 is on record?
**A.** 1590 nM

**Q.** With `COc1ccc(Cn2cc(C(=O)N[C@H]3CCNC[C@H]3F)c3c(F)cccc32)cc1` (single isomer, unassigned; isomer-ii) [Example 37, cis-N-(3-Fluoropiperidin-4-yl)-1-(4-methoxybenzyl)-4-fluoro-1H-indole-3-carboxamide hydrochloride (Isomer-II)] as the molecule, how does the EC50 read?
**A.** 1990 nM

same assay, conditions: in presence of EC20 of acetylcholine; luciferase activity, 4 hours; read-out: hM1 PAM EC50

**Q.** For `O=C(N[C@H]1CCCC[C@@H]1O)c1cn(Cc2ccnc(F)c2F)c2cccc(F)c12` [Example 13, N-[(1S,2S)-2-Hydroxycyclohexyl]-1-(2,3-difluoropyridin-4-ylmethyl)-4-fluoro-1H-indole-3-carboxamide], which EC50 is on record?
**A.** 1380 nM

**Q.** For `O=C(N[C@H]1CCCC[C@@H]1O)c1cn(Cc2ccncc2F)c2cccc(F)c12` [Example 9, N-[(1S,2S)-2-Hydroxycyclohexyl]-1-(3-fluoropyridin-4-ylmethyl)-4-fluoro-1H-indole-3-carboxamide], which EC50 is on record?
**A.** 1420 nM

**Q.** With `O=C(N[C@H]1CCCC[C@@H]1O)c1cn(Cc2cnn(CCF)c2)c2cccc(F)c12` [Example 19, N-[(1S,2S)-2-Hydroxycyclohexyl]-1-(1-(2-fluoroethyl)-1H-pyrazol-4-ylmethyl)-4-fluoro-1H-indole-3-carboxamide] as the molecule, how does the EC50 read?
**A.** 744 nM

**Q.** With `O=C(N[C@H]1CCCC[C@@H]1O)c1cn(Cc2ccncc2F)c2c(F)ccc(F)c12` [Example 10, N-[(1S,2S)-2-Hydroxycyclohexyl]-1-(5-fluoropyridin-4-ylmethyl)-4,7-difluoro-1H-indole-3-carboxamide] as the molecule, how does the EC50 read?
**A.** 940 nM

**Q.** Which EC50 does the source give for `O=C(N[C@H]1CCCC[C@@H]1O)c1cn(Cc2cc(F)ncc2F)c2cccc(F)c12` [Example 11, N-[(1S,2S)-2-Hydroxycyclohexyl]-1-(2,5-difluoropyridin-4-ylmethyl)-4-fluoro-1H-indole-3-carboxamide] here?
**A.** 1530 nM

**Q.** For `Cn1nc(Cn2cc(C(=O)N[C@H]3CCCC[C@@H]3O)c3c(F)cccc32)c2ccccc21` [Example 4], which EC50 is on record?
**A.** 1490 nM

**Q.** For `O=C(N[C@H]1CCCC[C@@H]1O)c1cn(Cc2ccc3ncsc3c2)c2cccc(F)c12` [Example 18, N-[(1S,2S)-2-Hydroxycyclohexyl]-1-(benzothiazol-6-ylmethyl)-4-fluoro-1H-indole-3-carboxamide], which EC50 is on record?
**A.** 160 nM

**Q.** With `Cn1cc(Cn2cc(C(=O)N[C@@H]3CCCC[C@H]3O)c3c(F)cccc32)cn1` [Example 3, N-[(1R,2R)-2-Hydroxycyclohexyl]-1-(1-methyl-1H-pyrazol-4-ylmethyl)-4-fluoro-1H-indole-3-carboxamide] as the molecule, how does the EC50 read?
**A.** 1640 nM

system: not listed separately; assay: Rodent brain penetration study; assay type: in vivo, Male Wistar rats; conditions: male, Wistar, rat, oral; 3 mg/kg, p.o.; brain-plasma ratio; read-out: Single dose Rat Brain Penetration (Cb/Cp)
Protocol: WO2015044072A1 patent application discloses indole derivatives as M1 PAM compounds. […] This makes these compounds less ideal for the treatment of CNS disorders.
Rodent Brain Penetration Study
Male Wistar rats (260±40 grams) were used as experimental animals. Three animals were housed in each cage. Animals were given water and food ad libitum throughout the experiment and maintained on a 12 hours light/dark cycle.
Brain penetration was determined in discrete manner in rats. One day prior to dosing day, male Wistar rats were acclimatized and randomly grouped according to their weight. At each time point (0.5, 1 and 2 hours) n=3 animals were used.
The test compounds were suitably preformulated and administered orally at (free base equivalent) 3 mg/kg. Blood samples were removed via cardiac puncture by using isoflurane anesthesia. The animals were sacrificed to collect brain tissue. Plasma was separated and brain samples were homogenized and stored frozen at ˜20° C. until analysis. The concentrations of the test compounds in plasma and brain were determined using LC-MS/MS method.
The test compounds were quantified in plasma and brain homogenate by qualified LC-MS/MS method using suitable extraction technique. The test compounds were quantified in the calibration range of 1-500 ng/mL in plasma and brain homogenate. Study samples were analyzed using calibration samples in the batch and quality control samples spread across the batch.

**Q.** Which Kp does the source give for `O=C(N[C@H]1CCCC[C@@H]1O)c1cn(Cc2ccncc2F)c2c(F)ccc(F)c12` [Example 10, N-[(1S,2S)-2-Hydroxycyclohexyl]-1-(5-fluoropyridin-4-ylmethyl)-4,7-difluoro-1H-indole-3-carboxamide] here?
**A.** 2.4 ± 0.3

**Q.** With `O=C(N[C@H]1CCNC[C@H]1F)c1cn(Cc2ccc(F)cc2)c2cccc(F)c12` (single isomer, unassigned; isomer-i) [Example 30, cis-N-(3-Fluoropiperidin-4-yl)-1-(4-fluorobenzyl)-4-fluoro-1H-indole-3-carboxamide hydrochloride (Isomer-I)] as the molecule, how does the Kp read?
**A.** 1.05 ± 0.53

**Q.** For `O=C(N[C@H]1CCCC[C@@H]1O)c1cn(Cc2cc(F)ncc2F)c2cccc(F)c12` [Example 11, N-[(1S,2S)-2-Hydroxycyclohexyl]-1-(2,5-difluoropyridin-4-ylmethyl)-4-fluoro-1H-indole-3-carboxamide], which Kp is on record?
**A.** 1.59 ± 0.35
